# Assay results from patent US20070004680A1, “Compositions and methods for modulating gated ion channels” (PainCeptor Pharma Corporation, priority 2004, published 2007).
# Molecular target: T1, ASIC1a (Homo sapiens, UniProt P78348)
# T1 construct: host or cells: HEK293
# T1 sequence (P78348 1-528): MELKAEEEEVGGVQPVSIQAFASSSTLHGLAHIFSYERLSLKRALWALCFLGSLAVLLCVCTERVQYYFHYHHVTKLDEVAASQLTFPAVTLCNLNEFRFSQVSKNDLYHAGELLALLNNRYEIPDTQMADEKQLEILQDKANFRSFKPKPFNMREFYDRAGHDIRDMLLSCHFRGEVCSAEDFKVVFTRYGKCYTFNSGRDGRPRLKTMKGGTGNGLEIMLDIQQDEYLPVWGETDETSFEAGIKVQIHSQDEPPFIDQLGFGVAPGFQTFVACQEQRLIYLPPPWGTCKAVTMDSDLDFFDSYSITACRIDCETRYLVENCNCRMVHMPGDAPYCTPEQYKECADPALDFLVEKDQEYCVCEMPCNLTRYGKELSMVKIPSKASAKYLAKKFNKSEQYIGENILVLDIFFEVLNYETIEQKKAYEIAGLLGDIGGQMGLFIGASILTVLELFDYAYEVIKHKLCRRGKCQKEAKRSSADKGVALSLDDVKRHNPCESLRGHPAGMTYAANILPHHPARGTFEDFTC
# Experiment: FLIPR calcium assay (MES-induced calcium response), ASIC1a expressing HEK293 cells
# Type: cell-based
# Conditions: HEK cells
# Method: ASIC1a expressing HEK293 cells are grown in culture medium (DMEM with 10% FBS), in polystyrene culture flasks ([…]) at 37° C. in a humidified atmosphere of 5% CO2. Confluency of cells should be 80-90% on day of plating. Cells are rinsed with 10 ml of PBS and cells are re-suspended by addition of culture medium and trituration with a 25 ml pipette.
# The cells are seeded at a density of approximately 1×10^6 cells/ml (100 μl/well) in black-walled, clear bottom, 96-well plates pre-treated with 10 mg/l poly-D-lysin (75 μl/well for ≧30 min). Plated cells were allowed to proliferate for 24 h before loading with dye.
# Fluo-4/AM (1 mg, Molecular Probes) is added 912 μl DMSO. The Fluo-4/AM stock solution (1 mM) is diluted with culture medium to a final concentration of 2 μM.
# The culture medium is aspirated from the wells, and 50 μl of the Fluo-4/AM loading solution is added to each well. The cells are incubated at 37° C. for 30 min.
# After the loading period, the loading solution is aspirated and the cells are washed twice with 100 μl modified FLIPR medium (145 mM NaCl, 5 mM KCl, 5 mM CaCl2, 1 mM MgCl2, 10 mM HEPES, pH 7.4) to remove extracellular dye. Following the second wash, 100 μl modified FLIPR medium is added to each well and the fluorescence is measured in FLIPR.
# Temperature: Room temperature (20-22° C.)
# First addition: 50 μl test solution at a rate of 30 μl/sec and a starting height of […]
# Second addition: 50 μl MES solution (20 mM, 5 mM final concentration) at a rate of 35 μl/sec and a starting height of 150 μl.
# Reading intervals: pre-incubation—10 sec×7 and 3 sec×3 antagonist phase—3 sec×17 and 10 sec×12
# Addition plates (compound test plate and MES plate) are placed on the right and left positions in the FLIPR tray, respectively. Cell plates are placed in the middle position and the ASIC1a program is effectuated. FLIPR will then take the appropriate measurements in accordance with the interval settings above. Fluorescence obtained after stimulation is corrected for the mean basal fluorescence (in modified FLIPR medium). […]
structure (smiles),measurement,setting,value
C=CC1CN2CCC1CC2[C@@H](OC(=O)CCC1CCCC1)c1ccnc2ccccc12 (some centres unmarked) [Compound A],inhibition at 1 µM,"HEK293, at 1 μM, FLIPR",30 to 45%
same,IC50,"MES-induced calcium response, peak values",1000 to 4000 nM
